Patent US20220380366A1, “HETEROCYCLIC SULFOXIMINE COMPOUND AND INTERMEDIATE THEREOF, PREPARATION METHOD THEREFOR, AND APPLICATION THEREOF” (priority 2019, published 2022)
Where two headings read alike, the source gives them in different places.

Experiments:
RET(V804M) mutant = biological target: T1, RET(V804M) mutant (Homo sapiens, UniProt P07949, V804M); assay: Biochemical IC50 of RET(V804M) mutant (33P-ATP filter binding, Reaction Biology)
T1 construct: purchased Reaction Biology Corporation (contract assay; enzyme is the CRO's)
Protocol: (§1) For detailed test methods, the following references were referred to: T. Anastassiadis, S. W. Deacon, K. Devarajan, H. Ma, J. R. Peterson. […] Nat. Biotech.
(§2) The compounds of the present invention were dissolved in dimethyl sulfoxide (DMSO) to prepare 10 mM stock solutions, and ten different doses by 3-fold serial dilutions from 10 mM were prepared. The ATP concentration used in this determination was 1 μM.
(§3) Base reaction buffer: 20 mM 4-(2-hydroxyethyl)-1-piperazineethanesulfonic acid buffer (Hepes, pH 7.5), 10 mM magnesium chloride, 1 mM ethylene glycol-bis(3-aminoethylether)-N,N,N′,N′-tetraacetic acid (EGTA), 0.02% Brij™-35 (purchased from ThermoFisher Scientific), 0.02 mg/mL bovine serum albumin (BSA), 0.1 mM sodium orthovanadate (Na3VO4), 2 mM dithiothreitol (DTT), 1% dimethyl sulfoxide (DMSO).
(§4) a) adding the corresponding substrate to a freshly prepared base reaction buffer;
(§5) b) adding necessary cofactors;
(§6) c) adding kinase and shake gently;
(§7) d) adding the compounds in DMSO using Acoustic technology (Echo550; nanoliter range) and incubating at room temperature for 20 minutes;
(§8) e) adding 33P-ATP (specific activity 10 μCi/μL) to initiate the reaction;
(§9) f) incubating the kinase reaction at room temperature for 2 hours;
(§10) g) spotting the resultant of reaction on P81 ion exchange paper (purchased from Whatman);
(§11) h) detecting kinase activity by filter binding assay.
(§12) IC50 values were generated using Prism (GraphPad software).

RET-CCDC6 = biological target: T2, RET-CCDC6 (Homo sapiens, UniProt P07949); assay: Biochemical IC50 of RET-CCDC6 fusion (33P-ATP filter binding, Reaction Biology)
T2 construct: CCDC6 (fusion partner, UniProt Q16204); purchased Reaction Biology Corporation (contract assay; enzyme is the CRO's); the other entry of the earlier key: CCDC6 (Q16204, Coiled-coil domain-containing protein 6)
T2 sequence (P07949 with tags, fused parts or gaps): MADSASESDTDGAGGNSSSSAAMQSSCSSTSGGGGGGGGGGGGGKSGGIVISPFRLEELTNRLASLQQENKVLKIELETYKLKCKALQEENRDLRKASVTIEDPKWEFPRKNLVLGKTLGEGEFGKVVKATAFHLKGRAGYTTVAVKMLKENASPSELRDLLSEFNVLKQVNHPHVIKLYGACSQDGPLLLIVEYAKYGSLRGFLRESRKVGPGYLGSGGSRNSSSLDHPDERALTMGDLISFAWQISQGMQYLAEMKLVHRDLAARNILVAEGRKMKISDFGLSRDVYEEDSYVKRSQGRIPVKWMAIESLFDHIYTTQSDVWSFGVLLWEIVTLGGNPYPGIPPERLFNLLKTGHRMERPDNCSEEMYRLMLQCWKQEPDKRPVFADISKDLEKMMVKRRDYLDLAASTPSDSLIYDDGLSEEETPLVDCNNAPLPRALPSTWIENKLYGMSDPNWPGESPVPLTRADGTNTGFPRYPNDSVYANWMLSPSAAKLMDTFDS
Protocol: as §1, §2, §3, §4, §5, §6, §7, §8, §9, §10, §11, §12

[1] = system: Phospho-RET in LC-2/ad lung cancer cells; assay: Phospho-RET ELISA in LC-2/ad tumor cells; assay type: cell-based; conditions: Homo sapiens, LC-2-ad, 1 h, read-out: Cell IC50 Phospho-RET
Protocol: (§13) The compounds of the present invention were dissolved in dimethyl sulfoxide (DMSO) to prepare 10 mM stock solutions, and ten different doses by 3-fold serial dilutions from 10 mM were prepared. An ELISA assay format was used in the test.
(§14) PathScan® Phospho-Ret (panTyr) and p44/42 MAPK (Thr202/Tyr204) (ERK) Sandwich ELISA kits were purchased from Cell Signaling Technology. The LC-2/ad lung cancer cell line was purchased from Sigma-Aldrich. […] The medium was supplemented with 10% fetal bovine serum (FBS), 100 μg/mL penicillin and 100 μg/mL streptomycin, and the cultures were maintained at 37° C. in a humidified atmosphere of 5% CO2 and 95% air.
(§15) a) 1.5×10^4 LC-2/ad cells were seeded in the wells of a 96-well tissue culture plate overnight;
(§16) b) the cells were treated with DMSO or the test compound in DMSO (the initial concentration was 1 μM, and ten doses by 3-fold serial dilutions) for one hour;
(§17) The plate was shaken for 1 minute, then placed on a rocking platform at 4° C. for 30 minutes;
(§18) d) 80 μL/well of lysate was added to the appropriate wells of each ELISA plate and the plate was incubated overnight at 4° C. on a rocking platform;
(§19) e) the contents of the plate were discarded into a container and the wells were washed for four times with 200 μL/well of 1×ELISA wash buffer;
(§20) f) 100 μL of reconstituted Phospho-Ret(panTyr) or Phospho-ERK(Thr202/Tyr204; p44/42MAPK) detection antibody was added to the appropriate wells and the plate was incubated at 37° C. for 1 hour;
(§21) g) the washing procedure was repeated and 100 μL of reconstituted HRP-linked secondary antibody was added to each well of two plates and the plates were incubated at 37° C. for 30 minutes;
(§22) h) the washing procedure was repeated, 100 μL of TMB substrate was added to each well, and the plates were incubated at 37° C. for 45 minutes;
(§23) i) 100 μL of STOP solution was added to each well and the plate was gently shaken for a few seconds.

[2] = system: Phospho-ERK in LC-2/ad lung cancer cells; assay: Phospho-ERK ELISA in LC-2/ad tumor cells; assay type: cell-based; conditions: Homo sapiens, 1 h, read-out: Cell IC50 Phospho-ERK
Protocol: as §13, §14, §15, §16, §17, §18, §19, §20, §21, §22, §23

wild-type RET kinase = biological target: T3, wild-type RET kinase (Homo sapiens, UniProt P07949); assay: Biochemical IC50 of wild-type RET kinase (33P-ATP filter binding, Reaction Biology)
T3 construct: purchased Reaction Biology Corporation (contract assay; enzyme is the CRO's)
Protocol: as §1, §2, §3, §4, §5, §6, §7, §8, §9, §10, §11, §12

[3] = RET(V804M) mutant, ATP 1 μM, 33P-ATP filter binding, read-out: Biochemical IC50 RET (V804M)
[4] = RET-CCDC6 fusion, ATP 1 μM, 33P-ATP filter binding, read-out: Biochemical IC50 RET-CCDC6
[5] = wild-type RET kinase, ATP 1 μM, 33P-ATP filter binding, read-out: Biochemical IC50 RET

T3 sequence (P07949 29-1114): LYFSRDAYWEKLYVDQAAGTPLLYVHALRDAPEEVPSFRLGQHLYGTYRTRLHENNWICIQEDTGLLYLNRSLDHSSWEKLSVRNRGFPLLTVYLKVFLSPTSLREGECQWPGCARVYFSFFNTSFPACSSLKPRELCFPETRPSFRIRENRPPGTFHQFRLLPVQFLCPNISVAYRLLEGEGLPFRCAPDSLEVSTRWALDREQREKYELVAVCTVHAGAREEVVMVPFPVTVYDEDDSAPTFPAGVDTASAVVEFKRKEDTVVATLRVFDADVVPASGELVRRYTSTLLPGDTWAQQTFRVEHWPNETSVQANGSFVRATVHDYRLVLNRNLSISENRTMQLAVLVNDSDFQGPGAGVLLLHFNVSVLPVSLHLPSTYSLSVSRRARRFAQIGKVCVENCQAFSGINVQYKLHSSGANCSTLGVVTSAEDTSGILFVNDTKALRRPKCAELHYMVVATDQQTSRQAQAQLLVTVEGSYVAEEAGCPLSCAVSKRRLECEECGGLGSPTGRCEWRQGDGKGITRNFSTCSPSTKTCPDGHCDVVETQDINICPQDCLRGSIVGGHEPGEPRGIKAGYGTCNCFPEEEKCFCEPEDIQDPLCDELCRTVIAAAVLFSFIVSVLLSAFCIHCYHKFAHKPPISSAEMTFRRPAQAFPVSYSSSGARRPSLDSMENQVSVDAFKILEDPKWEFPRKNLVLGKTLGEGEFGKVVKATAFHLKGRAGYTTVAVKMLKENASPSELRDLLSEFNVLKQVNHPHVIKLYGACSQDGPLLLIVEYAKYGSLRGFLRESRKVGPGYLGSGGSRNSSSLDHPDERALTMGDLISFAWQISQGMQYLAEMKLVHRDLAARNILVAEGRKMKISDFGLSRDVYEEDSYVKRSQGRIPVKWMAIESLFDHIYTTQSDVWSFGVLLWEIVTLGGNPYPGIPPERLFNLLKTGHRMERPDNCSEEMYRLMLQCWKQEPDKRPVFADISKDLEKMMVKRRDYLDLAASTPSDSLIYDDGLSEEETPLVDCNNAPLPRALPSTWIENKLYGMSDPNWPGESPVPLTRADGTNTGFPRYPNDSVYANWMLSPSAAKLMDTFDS
T1 sequence (P07949 29-1114 V804M): as the sequence (P07949 29-1114) above, with V776M counted along it

Row | Compound | IC50 (RET(V804M) mutant) [nM] | IC50 (RET-CCDC6) [nM] | IC50 [1] [nM] | IC50 [2] [nM] | IC50 (wild-type RET kinase) [nM] | IC50 (RET(V804M) mutant; [3]) [nM] | IC50 (RET-CCDC6; [4]) [nM] | IC50 (wild-type RET kinase; [5]) [nM]
1 | COc1ccc(CN=S2(=O)CCN(c3ccc(-c4cc(-c5cnn(C)c5)cn5ncc(C#N)c45)cn3)CC2)cn1 [Ex. 14, 4-(6-(1-(((6-methoxypyridin-3-yl)methyl)imino)-1-oxothiomorpholinyl)pyridin-3-yl)-6-(1-methyl-1H-pyrazole-4-yl)pyrazolo[1,5-a]pyridine-3-carbonitrile] | 5.21 | 0.336 | 11.5 | 82.5 | 0.657 |  |  | 
2 | COc1ccc(N=S2(=O)CCN(c3ccc(-c4cc(-c5cnn(C)c5)cn5ncc(C#N)c45)cn3)CC2)cn1 [Ex. 15, 4-(6-(1-((6-methoxypyridin-3-yl)imino)-1-oxothiomorpholinyl)pyridin-3-yl)-6-(1-methyl-1H-pyrazole-4-yl)pyrazolo[1,5-a]pyridine-3-carbonitrile] |  |  | 0.51 | 321 |  | 1.72 | 0.518 | 0.759
3 | Cn1cc(-c2cc(-c3ccc(N4CCC(N=S(C)(C)=O)CC4)nc3)c3c(C#N)cnn3c2)cn1 [Ex. 16, 4-(6-(4-((dimethyloxo-λ^4-sulfinyl)amino)piperidin-1-yl)pyridin-3-yl)-6-(1-methyl-1H-pyrazole-4-yl)pyrazolo[1,5-a]pyridine-3-carbonitrile] | 5.55 | 0.619 | 66.4 | 7.19 | 1.16 |  |  | 
4 | Cn1cc(-c2cc(-c3ccc(N4CCC(N=[S@](C)(=O)c5ccccc5)CC4)nc3)c3c(C#N)cnn3c2)cn1 [Ex. 18, 4-(6-(4-(((R)—S-methyl-S-phenyl-oxo-λ^4-sulfinyl)amino)piperidin-1-yl)pyridin-3-yl)-6-(1-methyl-1H-pyrazole-4-yl)pyrazolo[1,5-a]pyridine-3-carbonitrile] |  |  | 7.1 | 6.83 |  | 4.72 | 0.501 | 0.907
5 | Cn1cc(-c2cn3ncc(C#N)c3c(-c3ccc(N4CCS(=N)(=O)CC4)nc3)n2)cn1 [Ex. 20, 4-(6-(1-imino-1-oxothiomorpholinyl)pyridin-3-yl)-6-(1-methyl-1H-pyrazole-4-yl)pyrazolo[1,5-a]pyrazine-3-carbonitrile] | 7.91 | 0.677 | 91.4 | 7.77 | 1.16 |  |  | 
6 | COc1ccc(CN=S2(=O)CCN(c3ccc(-c4nc(-c5cnn(C)c5)cn5ncc(C#N)c45)cn3)CC2)cn1 [Ex. 21, 4-(6-(1-(((6-methoxypyridin-3-yl)methyl)imino)-1-oxothiomorpholinyl)pyridin-3-yl)-6-(1-methyl-1H-pyrazole-4-yl)pyrazolo[1,5-a]pyrazine-3-carbonitrile] | 7.83 | 0.528 | 21.3 | 6.42 | 1.02 |  |  | 
7 | Cn1cc(-c2cn3ncc(C#N)c3c(-c3ccc(N4CCC(N=[S@](C)(=O)c5ccccc5)CC4)nc3)n2)cn1 [Ex. 25, 4-(6-(4-(((R)—S-methyl-S-phenyl-oxo-λ^4-sulfinyl)amino)piperidin-1-yl)pyridin-3-yl)-6-(1-methyl-1H-pyrazole-4-yl)pyrazolo[1,5-a]pyrazine-3-carbonitrile] | 10.6 | 1.15 | 84.7 | 9.27 | 2.02 |  |  | 
